Reference: publication PMC6985722 (Antimicrobial Agents and Chemotherapy, 2020)
“And” between values parts separate entries of the source, which are not always exact repeats. Equal values may be shown once. Read-outs that look alike come from different tables or passages of the source.

Legend:
[1] = tested on: RSV-A Memphis-37b; test: RSV human challenge study: viral load in nasal wash by RT-qPCR; assay type: in vivo; conditions: for AUC of viral load (RT-qPCR), fixed time period of 6.5 days, mean (SE) / AUC of viral load (RT-qPCR), fixed time period of 6.5 days, reduction in mean vs placebo: fixed 6.5 days
Procedure: Subjects were screened outside the RSV season for eligibility, including measurement of RSV-A Memphis-37b-specific neutralizing antibody titer, ≤90 days before virus challenge. Eligible subjects were admitted to the quarantine unit on day −2 or day −1 and were inoculated intranasally on day 0 with the challenge virus, RSV-A Memphis-37b (4 log10 PFU/ml, given as one 0.4-ml installation per naris), as previously described ([26]). Nasal wash sampling every 12 h for confirmation of RSV infection by qualitative integrated cycler PCR ([12], [19]) began on the morning of day 2. Treatment began 12 h (±1 h) after collection of a nasal wash sample confirming RSV infection or on the evening of day 5 if RSV infection remained unconfirmed by the morning of day 5.
The study comprised two consecutive cohorts. […] Subjects were discharged on day 12 if nasopharyngeal swab samples tested negative by RSV rapid antigen assay (QuickVue RSV test; Quidel, San Diego, CA, USA). If such tests were positive or if a subject remained symptomatic, quarantine was extended to allow further observation. All subjects were evaluated on day 28 (±3 days).
(§1) Twice-daily collection of nasal wash samples allowed measurement of viral load via RT-qPCR and quantitative culture. RT-qPCR results were reported as PFUe/ml when the standard curve included in each assay contained a known infectious amount (PFU) of RSV, as described previously ([30]). Subjects reported the occurrence and severity of symptoms three times daily using a 10-item subject symptom diary card as previously reported ([12]) (see Supplemental Methods). Throughout the quarantine period, used tissues were collected and weighed daily, and total nasal mucus weight was recorded. PK assessments were based on venous blood samples. Safety assessments included measurement of vital signs, standard 12-lead ECG recordings, spirometry, a complete physical examination, and a respiratory-directed physical examination. AEs were monitored daily, coded according to the Medical Dictionary for Regulatory Activities Version 20.0, and graded according to the National Cancer Institute Common Terminology Criteria for Adverse Events Version 4.0 (see Supplemental Methods for further details).
The primary efficacy endpoint was AUC for RSV viral load, as measured by RT-qPCR, in nasal wash samples taken twice daily from just before the first dose until discharge (day 12). Viral load data were provided as log10 PFUe/ml; AUC (log10 PFUe/ml · h) was calculated using the trapezoid rule. Secondary efficacy endpoints related to viral load were AUC of RSV viral load, as assessed by quantitative culture, and the following measures, which were each assessed using both RT-qPCR and quantitative culture: peak viral load, time to peak viral load, and time to <1 log10 (for RT-qPCR) or undetectable (for quantitative culture) viral load (considered to occur at the first confirmed undetectable assessment after which no further virus was detected). Secondary efficacy endpoints related to clinical symptoms included AUC total symptom score; peak total symptom score; time to peak total symptom score; and the total weight of nasal mucus produced. Other secondary outcomes were safety, PK, and sequence detection of viral variants (see Supplemental Methods).
The primary efficacy analysis population (the ITT-I analysis set) comprised all randomized subjects who received challenge virus and at least one dose of study drug and met the criterion for laboratory-confirmed RSV infection (presence of detectable RSV). Sensitivity analyses were based on a subset of the ITT-I population who had first detectable RSV infection prior to study drug administration (the ITT-A analysis set) and a fixed time period of 6.5 days (comprising data for all subjects for 6.5 days of evaluation after the first dose, regardless of the staggered commencement of dosing). […]

[2] = RSV human challenge study: plasma pharmacokinetics; assay type: in vivo; conditions: for half-life / Tmax / concentration at 12 h / Cmax / AUC(0-t): human; for concentration at 12 h: 12 hours post-dose, read-out: Mean Cmin (SD); for Cmax: read-out: Mean Cmax (SD); for AUC(0-t): read-out: Geometric mean (CV) AUC0–12h
Procedure: as §1, with “RT-qPCR results were reported as PFUe/ml when the standard curve included in each assay contained a known infectious amount (PFU) of RSV, as described previously ([30]).” left out
The safety analysis set comprised all subjects who received challenge virus; the PK analysis set comprised all subjects who received the challenge virus and provided at least one postdose PK result.
PK parameters were derived by noncompartmental analysis using Phoenix WinNonlin version 6.4.1. Statistical analyses were performed using SAS software version 9.4 or later. […]
Outcomes. Safety outcomes included the occurrence of AEs. PK outcomes included the maximum plasma concentration, the minimum plasma concentration, the time to maximum plasma concentration, and the area under the plasma concentration-time curve with a dosing interval, calculated by the linear trapezoidal rule.

[3] = tested on: RSV-B isolates; set-up: method as in ref 16 = [16]; 16. Cockerill GS , Bedernjak A , Brookes D , Dowey R , Harland R , Johnson SM , Mathews N , Paradowski M , Peeples M , Scott C , Steadman M , Taylor G , Thom M , Thomas E , Ward SE , Watterson D , You; conditions: n = 16 isolates; cited from earlier work
[4] = 200 mg, ITT-A, fixed time period of 6.5 days
[5] = 350 mg, ITT-A, fixed time period of 6.5 days

## NCc1ccc2c(c1)nc(CN1C(=O)C3(CC3)c3ccc(F)cc31)n2CCCC(F)(F)F [RV521]
[1]; 200 mg, ITT-A
  AUC of viral load (RT-qPCR), mean (SE): 236.81 (37.63) hours x log 10 PFUe/mL
  AUC of viral load (RT-qPCR), reduction in mean vs placebo: 59.74%
  Peak viral load (RT-qPCR), mean (SE): 3.63 (0.26) log10 PFUe/mL
  Time to <1 log10 viral load (RT-qPCR), median (Q1, Q3): 3.0 (3.0, 6.0) days
  Time to peak viral load (RT-qPCR), mean (SE): 0.94 (0.11) days
[1]; [4]
  AUC of viral load (RT-qPCR), mean (SE): 234.29 (37.07) log10 PFUe/mL x hours
  AUC of viral load (RT-qPCR), reduction in mean vs placebo: –276.21 log10 PFUe/mL x hours
[1]; 200 mg, ITT-I
  AUC of viral load (RT-qPCR), mean (SE): 224.35 log10 PFUe/ml · h and 224.35 (37.60) log10 PFUe/ml · h
  AUC of viral load (RT-qPCR), reduction in mean vs that of placebo: 55.25%
  AUC of viral load (RT-qPCR, unlogged), mean (SE): 1,087,294.53 (604,070.11) PFUe/ml · h
  AUC of viral load (RT-qPCR, unlogged), reduction in mean vs that of placebo: 99.10%
  Peak viral load (RT-qPCR), mean (SE): 3.47 log10 PFUe/ml and 3.47 (0.30) log10 PFUe/ml
  Time to <1 log10 viral load (RT-qPCR), median (Q1, Q3): 3.0 days and 3.0 (3.0, 6.0) (n = 17) days
  Time to peak viral load (RT-qPCR), mean (SE): 0.95 days and 0.95 (0.11) days
  Mean viral load at time of peak viral load in placebo arm (day 3; RT-qPCR), mean (SE): 1.35 (0.36) log10 PFUe/ml
  AUC of viral load (RT-qPCR), fixed time period of 6.5 days, mean (SE): 221.98 (37.05) log10 PFUe/ml · h
  AUC of viral load (RT-qPCR), fixed time period of 6.5 days, reduction in mean vs placebo: 49.08%
[1]; 350 mg, ITT-A
  AUC of viral load (RT-qPCR), mean (SE): 210.61 (29.76) hours x log 10 PFUe/mL
  AUC of viral load (RT-qPCR), reduction in mean vs placebo: 64.19%
  Peak viral load (RT-qPCR), mean (SE): 3.58 (0.40) log10 PFUe/mL
  Time to <1 log10 viral load (RT-qPCR), median (Q1, Q3): 3.5 (3.0, 4.0) days
  Time to peak viral load (RT-qPCR), mean (SE): 1.65 (0.39) days
[1]; [5]
  AUC of viral load (RT-qPCR), mean (SE): 207.56 (28.74) log10 PFUe/mL x hours
  AUC of viral load (RT-qPCR), reduction in mean vs placebo: –302.95 log10 PFUe/mL x hours
[1]; 350 mg, ITT-I
  AUC of viral load (RT-qPCR), mean (SE): 185.26 log10 PFUe/ml · h and 185.26 (31.17) log10 PFUe/ml · h
  AUC of viral load (RT-qPCR), reduction in mean vs that of placebo: 63.05%
  AUC of viral load (RT-qPCR, unlogged), mean (SE): 1,356,521.31 (1,117,131.13) PFUe/ml · h
  AUC of viral load (RT-qPCR, unlogged), reduction in mean vs that of placebo: 98.87%
  Peak viral load (RT-qPCR), mean (SE): 3.17 log10 PFUe/ml and 3.17 (0.45) log10 PFUe/ml
  Time to <1 log10 viral load (RT-qPCR), median (Q1, Q3): 3.5 days and 3.5 (3.0, 4.0) (n = 13) days
  Time to peak viral load (RT-qPCR), mean (SE): 1.63 days and 1.63 (0.34) days
  Mean viral load at time of peak viral load in placebo arm (day 3; RT-qPCR), mean (SE): 0.80 (1.07) log10 PFUe/ml
  AUC of viral load (RT-qPCR), fixed time period of 6.5 days, mean (SE): 182.59 (30.29) log10 PFUe/ml · h
  AUC of viral load (RT-qPCR), fixed time period of 6.5 days, reduction in mean vs placebo: 58.12%
[2]; 200 mg and 350 mg
  Time to steady-state plasma levels after the first dose: ≤ 24 h
[2]; 200 mg, after the first dose
  Subjects achieving target trough levels (3× protein-adjusted in vitro EC90): 50%
[2]; 200 mg, after the second dose
  Subjects achieving target trough levels (3× protein-adjusted in vitro EC90): 73%
[2]; 350 mg, after the first dose
  Subjects with trough levels in excess of the target (3× protein-adjusted in vitro EC90): all subjects
[2]; dose 1 and dose 10, 200 mg vs 350 mg
  Increase of systemic exposure with dose: greater than dose-proportional
[2]; in vivo, 200 mg and 350 mg, read-out: Elimination half-life (converted)
  half-life: ~6 h
[2]; plasma, oral, 200 mg and 350 mg, postdose, read-out: Median time to maximum plasma concentration
  Tmax: 5 to 6 h
[2]; plasma, oral, 200 mg, dose 1
  concentration at 12 h: 22.6 ng/mL
  AUC(0-t): 255 ng·h/mL
[2]; plasma, oral, 200 mg, dose 1, plasma
  Cmax: 55.3 ng/mL
[2]; plasma, oral, 200 mg, dose 1, read-out: Median Tmax
  Tmax: 5.04 h
[2]; plasma, oral, 200 mg, dose 10 (twice daily), plasma
  Cmax: 94.9 ng/mL
[2]; plasma, oral, 200 mg, dose 10
  concentration at 12 h: 39.4 ng/mL
  AUC(0-t): 642 ng·h/mL
[2]; plasma, oral, 200 mg, dose 10, read-out: Median Tmax
  Tmax: 5.06 h
[2]; plasma, oral, 350 mg, dose 1
  concentration at 12 h: 80 ng/mL
  AUC(0-t): 953 ng·h/mL
[2]; plasma, oral, 350 mg, dose 1, plasma
  Cmax: 169 ng/mL
[2]; plasma, oral, 350 mg, dose 1, read-out: Median Tmax
  Tmax: 6 h
[2]; plasma, oral, 350 mg, dose 10 (twice daily), plasma
  Cmax: 294 ng/mL
[2]; plasma, oral, 350 mg, dose 10
  concentration at 12 h: 151 ng/mL
  AUC(0-t): 1900 ng·h/mL
[2]; plasma, oral, 350 mg, dose 10, read-out: Median Tmax
  Tmax: 5.05 h
[2]; plasma, oral, 200 mg and 350 mg, read-out: Terminal half-life
  half-life: 8.54 to 9.35 h
[3]
  IC50: 1 nM
